Results on eight compounds are retold here after EP4722207A1, “OXOISOINDOLINYL-SUBSTITUTED TETRAHYDROPYRIMIDINEDIONE DERIVATIVE AND USE THEREOF” (Gluetacs Therapeutics (Shanghai) Co., Ltd., priority 2023, dated 2024).

Test [1] has as its target T1, WEE1 (Homo sapiens, UniProt P30291+Q96SW2).
T1 construct: effects of the compounds of the present disclosure on the expression of target proteins in cells; endogenous in cells; host or cells: human PBMCs (hPBMCs)
The test is described as follows: Western-blot assay, substrate protein degradation in hPBMCs: WEE1. The test is classed as cell-based. To be noted: 24 hours of compound treatment, 50 nM and 500 nM.

Test [2] addresses T2, IKZF1 (Homo sapiens, UniProt Q13422+Q96SW2).
T2 construct: effects of the compounds of the present disclosure on the expression of target proteins in cells; endogenous in cells; host or cells: human PBMCs (hPBMCs)
The test is described as follows: Western-blot assay, substrate protein degradation in hPBMCs: IKZF1. The test is classed as cell-based. As to conditions: 24 hours of compound treatment, 50 nM and 500 nM.

Test [3] addresses T3, IKZF2 (Homo sapiens, UniProt Q96SW2+Q9UKS7).
T3 construct: effects of the compounds of the present disclosure on the expression of target proteins in cells; endogenous in cells; host or cells: human PBMCs (hPBMCs)
The test is described as follows: Western-blot assay, substrate protein degradation in hPBMCs: IKZF2. The test is classed as cell-based. As to conditions: 24 hours of compound treatment, 50 nM and 500 nM.

In test [4] the target is T4, IKZF3 (Homo sapiens, UniProt Q96SW2+Q9UKT9).
T4 construct: effects of the compounds of the present disclosure on the expression of target proteins in cells; endogenous in cells; host or cells: human PBMCs (hPBMCs)
Nature of the test: Western-blot assay, substrate protein degradation in hPBMCs: IKZF3. As to conditions: 24 hours of compound treatment, 50 nM and 500 nM. The test is classed as cell-based.

Test [5] addresses T5, CK1α (Homo sapiens, UniProt P48729+Q96SW2).
T5 construct: effects of the compounds of the present disclosure on the expression of target proteins in cells; endogenous in cells; host or cells: human PBMCs (hPBMCs)
Nature of the test: Western-blot assay, substrate protein degradation in hPBMCs: CK1α. The test is classed as cell-based. As to conditions: 24 hours of compound treatment, 50 nM and 500 nM.

Test [6] deals with T6, GSPT1 (Homo sapiens, UniProt P15170+Q96SW2).
T6 construct: effects of the compounds of the present disclosure on the expression of target proteins in cells; endogenous in cells; host or cells: human PBMCs (hPBMCs)
The test is described as follows: Western-blot assay, substrate protein degradation in hPBMCs: GSPT1. It counts as cell-based. To be noted: 24 hours of compound treatment, 50 nM and 500 nM.

Test [7] relates to MM.1S. The test is described as follows: Cell viability assay (CellTiter-Meiluncell Luminescent), tumor cell proliferation, MM.1S. As to conditions: Homo sapiens, MM1.S, 96 h; for inhibition at 0.01 µM: read-out: Inhibition Rate at 10 nM (%); for inhibition at 0.5 µM: read-out: Inhibition Rate at 500 nM (%).
The test system of test [8] is H2228. Nature of the test: Cell viability assay (CellTiter-Meiluncell Luminescent), tumor cell proliferation, H2228. As to conditions: Homo sapiens, NCI-H2228, 96 h; for inhibition at 0.01 µM: read-out: Inhibition Rate at 10 nM (%); for inhibition at 0.5 µM: read-out: Inhibition Rate at 500 nM (%).
Procedure: The tumor cells used herein were cultured in a cell culture medium listed in table 2 at 37°C in an incubator with 5% CO2. Prior to experimentation, all cell lines used were correctly identified by STR profiling, and tested negative for mycoplasma contamination using a mycoplasma detection kit through routine screenings.
On the following day, the test compounds of the present disclosure were subjected to serial dilution. […] Subsequently, 0.5 µL of the test compound dilution was transferred into the 96-well plate containing the cells, with each well containing 100 µL of cell culture medium. […] Into the 96-well plate, the diluted test compounds and corresponding detection reagents were added, resulting in final test compound concentrations of 500 nM and 10 nM, respectively. The experimental procedure is described below using the diluted 2 µM test compound as an example.
After the cells were treated with the compounds of the present disclosure for a specified period, the cell viability assay reagent was added to the culture medium according to the kit's instructions to determine cell viability. […] All controls were treated using the same procedure as the compounds of the present disclosure. The growth inhibition curves for the compounds of the present disclosure were plotted using Prism GraphPad software, and the IC50 values were calculated therefrom.
For test [9], the system named is MV-4-11. The test is described as follows: Cell viability assay (CellTiter-Meiluncell Luminescent), tumor cell proliferation, MV-4-11. To be noted: Homo sapiens, MV4-11, 96 h; for inhibition at 0.01 µM: read-out: Inhibition Rate at 10 nM (%); for inhibition at 0.5 µM: read-out: Inhibition Rate at 500 nM (%).
Test [10] has as its system MDA-MB-231. The test is described as follows: Cell viability assay (CellTiter-Meiluncell Luminescent), tumor cell proliferation, MDA-MB-231. As to conditions: Homo sapiens, MDA-MB-231, 96 h; for inhibition at 0.01 µM: read-out: Inhibition Rate at 10 nM (%); for inhibition at 0.5 µM: read-out: Inhibition Rate at 500 nM (%).
For test [11], the system named is H292. The test is described as follows: Cell viability assay (CellTiter-Meiluncell Luminescent), tumor cell proliferation, H292. To be noted: Homo sapiens, NCI-H292, 96 h; for inhibition at 0.01 µM: read-out: Inhibition Rate at 10 nM (%); for inhibition at 0.5 µM: read-out: Inhibition Rate at 500 nM (%).

One may read the inhibition as the change of the read-out against control, counted positive when it falls.

Each structure is given as a SMILES string.

T3 sequence (Q9UKS7 whole entry): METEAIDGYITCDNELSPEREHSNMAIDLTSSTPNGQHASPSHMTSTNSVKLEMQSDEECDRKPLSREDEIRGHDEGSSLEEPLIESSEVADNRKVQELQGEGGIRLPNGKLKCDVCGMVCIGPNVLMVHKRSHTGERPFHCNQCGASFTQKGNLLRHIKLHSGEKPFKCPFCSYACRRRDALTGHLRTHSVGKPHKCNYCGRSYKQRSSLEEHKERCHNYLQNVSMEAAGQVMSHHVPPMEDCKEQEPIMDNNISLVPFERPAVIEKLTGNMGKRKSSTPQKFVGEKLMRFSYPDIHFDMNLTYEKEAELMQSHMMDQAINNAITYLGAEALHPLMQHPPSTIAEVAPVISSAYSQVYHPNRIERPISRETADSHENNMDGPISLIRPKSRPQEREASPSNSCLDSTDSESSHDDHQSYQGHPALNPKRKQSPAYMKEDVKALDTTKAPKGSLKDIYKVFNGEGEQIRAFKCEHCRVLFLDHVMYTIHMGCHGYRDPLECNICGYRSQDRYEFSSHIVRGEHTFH
T3 sequence (Q96SW2 whole entry): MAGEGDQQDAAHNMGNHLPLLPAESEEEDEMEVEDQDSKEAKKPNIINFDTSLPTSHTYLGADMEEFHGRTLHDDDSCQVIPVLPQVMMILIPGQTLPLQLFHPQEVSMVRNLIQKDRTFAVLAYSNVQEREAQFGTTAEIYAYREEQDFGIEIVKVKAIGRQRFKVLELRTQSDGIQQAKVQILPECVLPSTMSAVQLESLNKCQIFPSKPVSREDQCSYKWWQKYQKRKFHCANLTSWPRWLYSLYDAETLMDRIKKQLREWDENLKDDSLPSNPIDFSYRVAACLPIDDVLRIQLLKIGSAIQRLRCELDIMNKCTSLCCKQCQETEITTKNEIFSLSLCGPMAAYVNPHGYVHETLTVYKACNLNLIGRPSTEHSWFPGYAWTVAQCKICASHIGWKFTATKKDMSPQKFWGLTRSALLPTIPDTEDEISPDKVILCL
T3 sequence (Q16531 whole entry partner): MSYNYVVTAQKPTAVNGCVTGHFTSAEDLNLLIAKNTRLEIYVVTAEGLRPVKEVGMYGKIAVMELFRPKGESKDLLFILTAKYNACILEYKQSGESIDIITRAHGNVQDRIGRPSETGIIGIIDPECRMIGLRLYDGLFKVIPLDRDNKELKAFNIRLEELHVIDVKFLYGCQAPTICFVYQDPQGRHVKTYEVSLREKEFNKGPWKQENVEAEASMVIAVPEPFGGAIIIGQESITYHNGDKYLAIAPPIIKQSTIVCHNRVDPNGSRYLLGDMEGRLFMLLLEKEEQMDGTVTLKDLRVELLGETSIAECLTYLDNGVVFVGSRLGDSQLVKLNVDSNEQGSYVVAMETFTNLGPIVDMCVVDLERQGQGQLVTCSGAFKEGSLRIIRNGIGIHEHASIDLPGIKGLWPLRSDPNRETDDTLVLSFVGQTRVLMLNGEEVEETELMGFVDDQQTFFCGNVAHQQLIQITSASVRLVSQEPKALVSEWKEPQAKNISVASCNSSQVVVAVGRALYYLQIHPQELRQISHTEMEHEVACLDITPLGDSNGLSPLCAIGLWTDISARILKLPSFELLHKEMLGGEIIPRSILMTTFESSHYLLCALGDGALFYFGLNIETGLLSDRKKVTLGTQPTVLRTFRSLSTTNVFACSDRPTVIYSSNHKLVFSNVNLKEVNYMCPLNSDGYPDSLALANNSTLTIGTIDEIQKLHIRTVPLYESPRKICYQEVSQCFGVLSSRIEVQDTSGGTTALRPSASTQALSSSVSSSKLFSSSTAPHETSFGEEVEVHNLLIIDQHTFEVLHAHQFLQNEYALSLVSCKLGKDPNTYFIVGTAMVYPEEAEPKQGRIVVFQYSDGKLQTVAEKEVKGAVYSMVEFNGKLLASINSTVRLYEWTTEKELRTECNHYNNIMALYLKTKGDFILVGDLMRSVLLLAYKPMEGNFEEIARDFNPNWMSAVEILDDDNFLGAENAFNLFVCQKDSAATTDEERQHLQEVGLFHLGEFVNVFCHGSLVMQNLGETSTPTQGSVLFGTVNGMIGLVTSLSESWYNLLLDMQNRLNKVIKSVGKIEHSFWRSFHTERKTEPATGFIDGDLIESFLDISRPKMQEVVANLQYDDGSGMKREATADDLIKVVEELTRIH
T6 sequence (P15170 whole entry): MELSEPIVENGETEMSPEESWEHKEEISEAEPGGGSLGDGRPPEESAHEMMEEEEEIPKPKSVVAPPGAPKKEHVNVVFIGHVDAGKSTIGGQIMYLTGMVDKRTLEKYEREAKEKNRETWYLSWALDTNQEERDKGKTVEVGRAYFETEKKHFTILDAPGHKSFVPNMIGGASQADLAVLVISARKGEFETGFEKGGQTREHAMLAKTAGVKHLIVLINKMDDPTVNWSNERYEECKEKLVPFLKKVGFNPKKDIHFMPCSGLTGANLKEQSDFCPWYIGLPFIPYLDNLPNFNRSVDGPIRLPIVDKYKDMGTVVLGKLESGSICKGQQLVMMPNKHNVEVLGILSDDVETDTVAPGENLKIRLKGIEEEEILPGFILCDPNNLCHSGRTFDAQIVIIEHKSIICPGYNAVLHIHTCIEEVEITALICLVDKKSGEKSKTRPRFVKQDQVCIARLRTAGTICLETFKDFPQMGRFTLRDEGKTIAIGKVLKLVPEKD
T6 sequence (Q96SW2 whole entry): as the sequence (Q96SW2 whole entry) above
T6 sequence (Q16531 whole entry partner): as the sequence (Q16531 whole entry partner) above
T2 sequence (Q13422 whole entry): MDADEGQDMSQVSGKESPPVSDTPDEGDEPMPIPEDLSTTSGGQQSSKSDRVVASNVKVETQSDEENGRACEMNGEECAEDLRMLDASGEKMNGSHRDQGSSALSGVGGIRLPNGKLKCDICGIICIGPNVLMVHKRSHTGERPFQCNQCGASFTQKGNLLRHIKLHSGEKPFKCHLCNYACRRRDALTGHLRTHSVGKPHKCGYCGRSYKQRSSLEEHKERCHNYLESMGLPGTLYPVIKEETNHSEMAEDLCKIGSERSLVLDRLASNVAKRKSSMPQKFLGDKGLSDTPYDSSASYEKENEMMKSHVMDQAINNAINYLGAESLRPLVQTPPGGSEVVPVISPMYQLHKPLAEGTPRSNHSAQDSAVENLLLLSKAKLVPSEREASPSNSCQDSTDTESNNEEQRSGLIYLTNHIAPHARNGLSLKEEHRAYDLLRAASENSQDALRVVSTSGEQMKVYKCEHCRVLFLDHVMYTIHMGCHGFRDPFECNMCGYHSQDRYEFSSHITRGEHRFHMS
T2 sequence (Q96SW2 whole entry): as the sequence (Q96SW2 whole entry) above
T2 sequence (Q16531 whole entry partner): as the sequence (Q16531 whole entry partner) above
T5 sequence (P48729 whole entry): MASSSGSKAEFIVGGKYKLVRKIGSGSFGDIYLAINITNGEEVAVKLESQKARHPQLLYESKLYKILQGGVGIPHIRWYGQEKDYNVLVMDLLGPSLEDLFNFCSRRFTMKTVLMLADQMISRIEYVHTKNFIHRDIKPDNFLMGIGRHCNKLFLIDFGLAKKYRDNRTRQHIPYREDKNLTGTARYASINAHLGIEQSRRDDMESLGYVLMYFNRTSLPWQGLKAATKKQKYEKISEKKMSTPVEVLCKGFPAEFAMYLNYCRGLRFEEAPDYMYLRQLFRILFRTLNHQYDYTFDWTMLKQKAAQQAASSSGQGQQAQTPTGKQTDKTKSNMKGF
T5 sequence (Q96SW2 whole entry): as the sequence (Q96SW2 whole entry) above
T5 sequence (Q16531 whole entry partner): as the sequence (Q16531 whole entry partner) above
T4 sequence (Q9UKT9 whole entry): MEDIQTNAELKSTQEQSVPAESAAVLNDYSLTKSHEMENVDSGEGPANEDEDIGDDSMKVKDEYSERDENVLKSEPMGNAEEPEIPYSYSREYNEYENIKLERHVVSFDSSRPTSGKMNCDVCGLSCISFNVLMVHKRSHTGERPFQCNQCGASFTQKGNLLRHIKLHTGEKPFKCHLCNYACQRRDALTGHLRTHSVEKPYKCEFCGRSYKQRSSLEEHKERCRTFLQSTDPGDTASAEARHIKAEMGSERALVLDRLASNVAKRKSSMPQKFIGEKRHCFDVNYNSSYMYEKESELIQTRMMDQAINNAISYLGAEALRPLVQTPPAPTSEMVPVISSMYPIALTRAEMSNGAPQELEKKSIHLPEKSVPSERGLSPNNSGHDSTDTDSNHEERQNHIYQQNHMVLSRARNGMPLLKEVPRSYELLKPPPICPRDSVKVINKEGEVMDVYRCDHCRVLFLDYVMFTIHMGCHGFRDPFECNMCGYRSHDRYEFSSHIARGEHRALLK
T4 sequence (Q96SW2 whole entry): as the sequence (Q96SW2 whole entry) above
T4 sequence (Q16531 whole entry partner): as the sequence (Q16531 whole entry partner) above

With `O=C1CCN(N2Cc3cc(CN4CC=C(c5cccc(Cl)c5Cl)CC4)ccc3C2=O)C(=O)N1` [GT-08054, 1-(5-((4-(2,3-dichlorophenyl)-3,6-dihydropyridin-1(2H)-yl)methyl)-1-oxoisoindolin-2-yl)dihydropyrimidine-2,4(1H,3H)-dione], the “substrate protein remaining % WEE1” value in test [1] is reported as “A (0% ≤ substrate protein remaining % ≤ 80%)”. Moreover, the “substrate protein remaining % IKZF1” value in test [2] is given as “A (0% ≤ substrate protein remaining % ≤ 80%)”. The “substrate protein remaining % IKZF2” value in test [3] is given as “A (0% ≤ substrate protein remaining % ≤ 80%)”. Also, in test [4], the “substrate protein remaining % IKZF3” value was “A (0% ≤ substrate protein remaining % ≤ 80%)”. For the same compound, in test [5], the “substrate protein remaining % CK1α” value is “A (0% ≤ substrate protein remaining % ≤ 80%)”. For the same compound, the “substrate protein remaining % GSPT1” value in test [6] was “A (0% ≤ substrate protein remaining % ≤ 80%)”. Further, the inhibition at 0.01 µM in test [7] fell in the range of 5 to 10%; in test [8], 20 to 25%; in [9], 18 to 25%; in test [10], 25 to 40%. The inhibition at 0.5 µM in [7] fell in the range of 80 to 100%; in test [8] it was 40 to 60%; in test [9], 80 to 100%; in test [10], 80 to 100%.

On to `O=C1CCN(N2Cc3cc(CN4CC=C(c5cccc(F)c5Cl)CC4)ccc3C2=O)C(=O)N1` [GT-08055, 1-(5-((4-(2-chloro-3-fluorophenyl)-3,6-dihydropyridin-1(2H)-yl)methyl)-1-oxoisoindolin-2-yl)dihydropyrimidine-2,4(1H,3H)-dione], for which the “substrate protein remaining % WEE1” value in test [1] was “A (0% ≤ substrate protein remaining % ≤ 80%)”. The “substrate protein remaining % IKZF1” value in test [2] is listed as “A (0% ≤ substrate protein remaining % ≤ 80%)”. The “substrate protein remaining % IKZF2” value in test [3] is recorded as “A (0% ≤ substrate protein remaining % ≤ 80%)”. Also, the “substrate protein remaining % IKZF3” value in [4] is reported as “A (0% ≤ substrate protein remaining % ≤ 80%)”. Further, the “substrate protein remaining % CK1α” value in test [5] was “A (0% ≤ substrate protein remaining % ≤ 80%)”. The “substrate protein remaining % GSPT1” value in test [6] was “A (0% ≤ substrate protein remaining % ≤ 80%)”. Also, the inhibition at 0.01 µM was -10 to -5% in [7], 10 to 15% in test [8], 25 to 30% in test [9] and 18 to 25% in test [10]. Further, the inhibition at 0.5 µM lay in the range of 80 to 100% in [7], 20 to 25% in [8], 80 to 100% in test [9] and 60 to 80% in [10].

Take `O=C1CCN(N2Cc3cc(CN4CCC(c5ncnc6sc(-c7ccccc7)cc56)CC4)ccc3C2=O)C(=O)N1` [GT-08085, 1-(1-oxo-5-((4-(6-phenylthieno[2,3-d]pyrimidin-4-yl)piperidin-1-yl)methyl)isoindolin-2-yl)dihydropyrimidine-2,4(1H,3H)-dione]: the “substrate protein remaining % WEE1” value in [1] is “B (80%< substrate protein remaining %≤ 100%)”. In test [2], the “substrate protein remaining % IKZF1” value is recorded as “B (80%< substrate protein remaining %≤ 100%)”. Moreover, the “substrate protein remaining % IKZF2” value in [3] was “B (80%< substrate protein remaining %≤ 100%)”. Moreover, the “substrate protein remaining % IKZF3” value in [4] is recorded as “B (80%< substrate protein remaining %≤ 100%)”. Besides, the “substrate protein remaining % CK1α” value in test [5] is recorded as “A (0% ≤ substrate protein remaining % ≤ 80%)”. Besides, the “substrate protein remaining % GSPT1” value in test [6] is listed as “A (0% ≤ substrate protein remaining % ≤ 80%)”. Moreover, the inhibition at 0.01 µM in test [11] lay within 20 to 40%; in test [7], 30 to 42%; in [8], 25 to 30%; in [9], 30 to 40%; in test [10], 25 to 40%. In addition, the inhibition at 0.5 µM in test [11] fell in the range of 40 to 60%; in test [7], 42 to 60%; in [8], 30 to 40%; in [9], 25 to 30%; in test [10], 40 to 60%.

With `Cc1nc(C2CCN(Cc3ccc4c(c3)CN(N3CCC(=O)NC3=O)C4=O)CC2)c2ccsc2n1` [GT-08088, 1-(5-((4-(2-methylthieno[2,3-d]pyrimidin-4-yl)piperidin-1-yl)methyl)-1-oxoisoindolin-2-yl)dihydropyrimidine-2,4(1H,3H)-dione], the “substrate protein remaining % WEE1” value in test [1] is given as “A (0% ≤ substrate protein remaining % ≤ 80%)”. Besides, the “substrate protein remaining % IKZF1” value in [2] is listed as “B (80%< substrate protein remaining %≤ 100%)”. For the same compound, the “substrate protein remaining % IKZF2” value in test [3] was “B (80%< substrate protein remaining %≤ 100%)”. The “substrate protein remaining % IKZF3” value in test [4] is listed as “B (80%< substrate protein remaining %≤ 100%)”. Also, in [5], the “substrate protein remaining % CK1α” value is recorded as “A (0% ≤ substrate protein remaining % ≤ 80%)”. In addition, the “substrate protein remaining % GSPT1” value in test [6] is reported as “A (0% ≤ substrate protein remaining % ≤ 80%)”. In addition, the inhibition at 0.01 µM in [11] lay in the range of 20 to 40%; in test [7], 42 to 60%; in test [8] it was 25 to 30%; in [9] it was 40 to 60%; in test [10], 18 to 25%. For the same compound, the inhibition at 0.5 µM in test [11] was in the range of 20 to 40%; in test [7], 42 to 60%; in [8], 25 to 30%; in test [9], 30 to 40%; in [10], 25 to 40%.

For `O=C1CCN(N2C(=O)c3ccc(CN4CCN(c5ncnc6sccc56)CC4)cc3C2=O)C(=O)N1` [GT-08090, 2-(2,4-dioxotetrahydropyrimidin-1(2H)-yl)-5-((4-(thieno[2,3-d]pyrimidin-4-yl)piperazin-1-yl)methyl)isoindoline-1,3-dione], in [1], the “substrate protein remaining % WEE1” value was “A (0% ≤ substrate protein remaining % ≤ 80%)”. In addition, the “substrate protein remaining % IKZF1” value in [2] is “B (80%< substrate protein remaining %≤ 100%)”. Besides, the “substrate protein remaining % IKZF2” value in test [3] is “B (80%< substrate protein remaining %≤ 100%)”. The “substrate protein remaining % IKZF3” value in test [4] is “B (80%< substrate protein remaining %≤ 100%)”. Besides, the “substrate protein remaining % CK1α” value in [5] is “A (0% ≤ substrate protein remaining % ≤ 80%)”. Further, the “substrate protein remaining % GSPT1” value in test [6] is reported as “A (0% ≤ substrate protein remaining % ≤ 80%)”. Moreover, the inhibition at 0.01 µM in test [11] was 15 to 20%; in test [7] it was 30 to 42%; in test [8], 20 to 25%; in [9], 60 to 80%; in test [10], 15 to 18%. In addition, the inhibition at 0.5 µM in [11] was in the range of 15 to 20%; in test [7], 42 to 60%; in test [8], 20 to 25%; in test [9] it was 60 to 80%; in test [10], 18 to 25%.

In the case of `CC(C)c1cc2c(C3=CCN(Cc4ccc5c(c4)CN(N4CCC(=O)NC4=O)C5=O)CC3)ncnc2s1` [GT-08158, 1-(5-((4-(6-isopropylthieno[2,3-d]pyrimidin-4-yl)-3,6-dihydropyridin-1(2H)-yl)methyl)-1-oxoisoindolin-2-yl)dihydropyrimidine-2,4(1H,3H)-dione], the inhibition at 0.01 µM in test [11] was in the range of 20 to 40%; in test [7] it was 5 to 10%; in [8], 25 to 30%; in [9] it was 30 to 40%; in test [10], 18 to 25%. Also, the inhibition at 0.5 µM in test [11] was 40 to 60%; in test [7] it was 80 to 100%; in [8], 60 to 80%; in test [9], 100 to 110%; in test [10] it was 80 to 100%.

`Cc1sc2ncnc(C3=CCN(Cc4ccc5c(c4)CN(N4CCC(=O)NC4=O)C5=O)CC3)c2c1C` [GT-08159, 1-(5-((4-(5,6-dimethylthieno[2,3-d]pyrimidin-4-yl)-3,6-dihydropyridin-1(2H)-yl)methyl)-1-oxoisoindolin-2-yl)dihydropyrimidine-2,4(1H,3H)-dione]: the inhibition at 0.01 µM lay in the range of 15 to 20% in test [11]; 0 to 5% in [7]; 10 to 15% in test [8]; 30 to 40% in [9]; 10 to 15% in [10]. The inhibition at 0.5 µM in test [11] lay in the range of 20 to 40%; in test [7], 60 to 80%; in test [8], 25 to 30%; in test [9], 80 to 100%; in test [10], 18 to 25%.

On to `Nc1cccc2c1CN(C1CCC(=O)NC1=O)C2=O` (stereo not shown) [lenalidomide, reference compound], for which the inhibition at 0.01 µM in [11] was 0 to 1%; in [7], 10 to 20%; in test [8], 20 to 25%; in test [9] it was 10 to 18%; in [10], 15 to 18%. Besides, the inhibition at 0.5 µM in test [11] is 5 to 10%; in test [7] it was 30 to 42%; in test [8], 15 to 20%; in test [9], 10 to 18%; in [10], 10 to 15%.
